Results taken from patent US12110287B2, “Heterocyclic derivatives as Nav1.7 and Nav1.8 blockers” (RaQualia Pharma Inc., priority 2018, dated 2024).

Columns and labels:
Nav1.7 [1] = biological target: T1, Nav1.7 (Homo sapiens, UniProt Q15858); assay: Electrophysiology assay (whole cell patch clamp), affinity to inactivated state; type: cell-based; design: expressed in transfected cells; conditions: affinity to inactivated state (Kinact), read-out: activity (Ki) against Nav1.7
Method: Whole cell patch clamp recording is used to assess the efficacy or selectivity of Na (Sodium) channel blocker on human voltage gated sodium channels. Na channel expressing cells are dissociated by 0.05% Trypsin-EDTA or Accutase, and then seeded on cover glass for 2-24 hours.
Manual patch clamp recordings are conducted at rt using the voltage-clamp amplifier (Axon Instruments or HEKA electronik). Electrodes are pulled with P-97 electrode puller (Sutter Instrument). The electrode resistances are 1-3 MOhm when intercellular solution is filled. Currents are lowpass filtered between 2-5 kHz and digitally sampled at 10 kHz. […]
After whole-cell configuration is achieved, cell is monitored at least 10 minutes to allow cell dialysis with pipette solution. […]
Peak currents evoked by Test 1 and Test 2 pulses are sampled with Clampex (Axon Instruments) or Pulse+Pulse Fit (HEKA). Averaged peak currents under vehicle or test compounds are calculated from 3 data points at end of each condition.
Inhibitory effects (% inhibition) on peak currents at Test 1 or Test 2 pulse are plotted against test concentration and IC50 values at Test 1 (Closed IC50) or Test 2 (Inactivated IC50) are calculated with Hill equation, respectively. […]
After whole-cell configuration is achieved, the cell is monitored at least 10-15 minutes to allow cell dialysis with pipette solution. […]

Nav1.7 [2] = biological target: T1, Nav1.7; assay: EFS-FRET assay; type: cell-based; design: expressed in transfected cells; host or cells: CHO (Chinese hamster ovary) cells; conditions: CHO cells expressing human Nav1.7 channels, read-out: IC50 against Nav1.7
Method: This screen is used to determine the effects of compounds on human Nav1.7 channels, utilizing electrical field stimulation (EFS) system in 96-well plate format on FDSS (Hamamatsu Photonics) platform. The changes of membrane potential are monitored with FRET dye pair, DiSBAC2(3) and PTS18.
CHO (Chinese hamster ovary) cells expressing human Nav1.7 channels are grown in T225 flasks, in a 5% CO2 humidified incubator to about 80% confluence. Media composition consists of HAM/F12 with Glutamax I, 10% FCS, 100 units/mF penicillin and 100 microgram/mF hygromycin.
• Seed each cell lines (1×10^5 cells/well) into 96-well plates prior to experimentation. • Incubate at 37° C. in 5% CO2 for 24 hours. • Wash each well with assay buffer (140 mM NaCl, 4.5 mM KCl, 10 mM D-Glucose, 2 mM CaCl2, 1 mM MgCl2, 10 mM HEPES, pH 7.4 adjusted with NaOH) twice. • Add 1st loading solution containing 10 microM PTS18 and 0.06% Pluronic F-127 in assay buffer. • Incubate the plate at rt in dark for 1 hour. • Remove 1st loading solution and add 2nd loading solution containing 12.5 microM DiSBAC2(3), 1.25 mM Xylene Fast Yellow and 0.0075% Pluronic F-127 in assay buffer. • Place the plate under the dark at rt for 25 minutes. • Add compound solutions into the assay plate. • Set the assay plate in FDSS and place an EFS device on the plate. • Measure EFS-induced fluorescent response by FDSS.
The data are analyzed and reported as normalized ratios of intensities measured at […]. The process of calculating these ratios is performed as follows:
This analysis is performed using a computerized specific program designed for FDSS generated data. Fluorescence ratio values are plotted using XLfit to determine an IC50 value for each compound.

T1 sequence (Q15858 whole entry): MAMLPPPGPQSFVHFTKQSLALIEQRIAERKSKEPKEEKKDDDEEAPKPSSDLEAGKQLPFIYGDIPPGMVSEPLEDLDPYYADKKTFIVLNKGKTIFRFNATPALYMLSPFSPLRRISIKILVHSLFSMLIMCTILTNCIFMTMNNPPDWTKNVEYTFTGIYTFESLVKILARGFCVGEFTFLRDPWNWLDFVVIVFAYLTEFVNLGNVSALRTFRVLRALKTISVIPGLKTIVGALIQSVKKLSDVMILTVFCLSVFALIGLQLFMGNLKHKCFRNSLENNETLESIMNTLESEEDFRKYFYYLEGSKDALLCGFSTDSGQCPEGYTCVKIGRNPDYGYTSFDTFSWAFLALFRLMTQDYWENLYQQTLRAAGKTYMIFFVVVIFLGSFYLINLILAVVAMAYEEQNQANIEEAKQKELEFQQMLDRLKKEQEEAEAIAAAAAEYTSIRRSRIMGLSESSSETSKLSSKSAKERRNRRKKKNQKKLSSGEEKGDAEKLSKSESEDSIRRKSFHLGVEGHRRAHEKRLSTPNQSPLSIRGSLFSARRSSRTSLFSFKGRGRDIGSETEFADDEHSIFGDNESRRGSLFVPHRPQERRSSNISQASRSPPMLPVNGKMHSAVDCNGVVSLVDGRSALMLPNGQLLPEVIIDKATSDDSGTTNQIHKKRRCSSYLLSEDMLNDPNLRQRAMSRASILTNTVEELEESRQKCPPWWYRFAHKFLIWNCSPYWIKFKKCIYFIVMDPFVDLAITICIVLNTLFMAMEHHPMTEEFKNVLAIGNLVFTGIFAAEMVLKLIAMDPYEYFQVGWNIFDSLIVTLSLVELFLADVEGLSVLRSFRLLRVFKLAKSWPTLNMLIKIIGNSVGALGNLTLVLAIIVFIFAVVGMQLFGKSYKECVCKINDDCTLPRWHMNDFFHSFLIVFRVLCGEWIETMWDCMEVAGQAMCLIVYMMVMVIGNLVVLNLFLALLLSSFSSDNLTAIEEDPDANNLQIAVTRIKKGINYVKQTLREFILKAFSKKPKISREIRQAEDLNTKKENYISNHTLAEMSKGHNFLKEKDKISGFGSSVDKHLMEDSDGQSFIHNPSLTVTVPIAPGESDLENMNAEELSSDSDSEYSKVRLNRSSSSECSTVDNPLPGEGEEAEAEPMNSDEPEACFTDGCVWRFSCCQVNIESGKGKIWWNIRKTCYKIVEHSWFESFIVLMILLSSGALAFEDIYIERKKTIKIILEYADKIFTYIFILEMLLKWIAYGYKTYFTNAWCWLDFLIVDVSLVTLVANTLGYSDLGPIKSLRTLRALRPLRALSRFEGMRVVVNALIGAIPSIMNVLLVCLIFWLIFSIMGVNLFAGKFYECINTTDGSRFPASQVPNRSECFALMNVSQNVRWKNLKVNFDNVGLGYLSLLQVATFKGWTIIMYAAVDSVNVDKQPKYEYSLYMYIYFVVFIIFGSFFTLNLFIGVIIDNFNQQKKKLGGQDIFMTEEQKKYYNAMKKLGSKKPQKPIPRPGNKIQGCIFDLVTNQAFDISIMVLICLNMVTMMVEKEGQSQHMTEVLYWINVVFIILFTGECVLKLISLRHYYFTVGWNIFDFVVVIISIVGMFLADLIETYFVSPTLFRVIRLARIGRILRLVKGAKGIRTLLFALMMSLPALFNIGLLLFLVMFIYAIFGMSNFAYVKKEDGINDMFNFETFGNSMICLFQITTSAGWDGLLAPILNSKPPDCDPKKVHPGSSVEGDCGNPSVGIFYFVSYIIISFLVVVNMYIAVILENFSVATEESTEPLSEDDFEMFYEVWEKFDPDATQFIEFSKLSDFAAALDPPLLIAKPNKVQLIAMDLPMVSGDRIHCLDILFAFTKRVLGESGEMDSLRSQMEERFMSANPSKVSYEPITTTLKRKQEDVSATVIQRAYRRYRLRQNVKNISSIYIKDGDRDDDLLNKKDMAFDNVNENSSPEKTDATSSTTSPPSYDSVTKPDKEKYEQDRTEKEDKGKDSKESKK

Ki (Nav1.7 [1]) [nM]	IC50 (Nav1.7 [2]) [nM]	SMILES
< 200	< 500	O=C(N[C@@H]1CCN(c2ncc(C(F)(F)F)cc2Cl)C1)c1ccnc(NC(=O)C2CC2)c1 [Example 9]
	< 500	CC(C)C(=O)Nc1nccc(C(=O)N[C@@H]2CCCN(c3ncc(C(F)(F)F)cc3Cl)C2)n1 [Example 27]
	< 500	CC(=O)Nc1cc(C(=O)NC2CN(c3ncc(C(F)(F)F)cc3Cl)C2)ccn1 [Example 8]
